The conditions of data set [1]: human, 10 mg/day p.o., HPLC study, ref [7], cited from earlier work.
Data set [2] in a line: in vivo. To be noted: male, Wistar, rat, im.
Description: (§1) An analytical column (Waters Spherisorb S5 W (250 mm × 4.6 i.d.; 5 μm particle size)) with guard column (Waters Spherisorb S5 W (30 mm × 4.6 mm i.d.)) was used for the analysis. The mobile phase contained acetonitrile and 50 mM sodium dihydrogen phosphate (17:83; v/v). The pH was adjusted to 3.1 with phosphoric acid ([13]). The sample volume was 40 µL for plasma samples and 90 µL for brain-tissue samples. All chromatograms were obtained at a conditioned temperature (50 °C), and the flow rate was 1.3 mL/min ([13]).
(§2) Male adult Wistar rats (body weight 230 ± 30 g; Anlab Inc., Prague, Czech Republic) were used for pharmacokinetics study. The animals were kept under recommended conditions: standard laboratory food and tap water were available ad libitum. All experimental procedures and protocols were reviewed and approved by the Ethics Committee of the Faculty of Military Health Sciences, University of Defense, Hradec Kralove, Czech Republic. […] Blood samples were collected directly from the heart into heparinized 1.5 mL polythene tubes after 5, 15, 30, 45, 60, 120 and 240 min, and after 24 h (n = 6; six animals in each time interval). The samples were immediately centrifuged at 3000 ×g for 10 min (10 °C), and the plasma obtained was stored at −80 °C until analysis.
(§3) Standard noncompartmental analysis was performed using Kinetica software, version 4.0 (InnaPhase Corporation, Thermo Fisher Scientific Inc., Waltham, MA, USA). Maximum concentration (Cmax) and the time to the maximum concentration (Tmax) were determined directly from the observed data. The area under the mean plasma concentration–time curve from zero up to infinity (AUCtotal) was determined as the sum of the AUC0–24 h and of the extrapolated part, i.e. the ratio of the concentration predicted at the time interval of 24 h and the terminal rate constant λz. The λz was estimated using linear regression of the log-transformed concentrations at interval from 45 min to 24 h plotted against time. The half-life was calculated as t1/2 = ln(2)/λz. […]
Data set [3] in a line: Plasma pharmacokinetics after single i.m. injection in rats (HPLC-UV). The conditions noted are these: male, Wistar, rat, in vivo, im.
Description: as §1, §2, §3
Data set [4] can be described thus: in vivo. To be noted: male, Wistar, rat.
Description: as §1, §2
After perfusion, the skull was opened and the brain was checked visually and subsequently carefully removed; time intervals correspond with blood sampling (5, 15, 30, 45, 60, 120 and 240 min, and after 24 hours; n = 6; the same animals were used). All brains were stored at –80 °C until HPLC analysis ([15]).
Standard noncompartmental analysis was performed using Kinetica software, version 4.0 (InnaPhase Corporation, Thermo Fisher Scientific Inc., Waltham, MA, USA). Maximum concentration (Cmax) and the time to the maximum concentration (Tmax) were determined directly from the observed data. The area under the mean plasma concentration–time curve from zero up to infinity (AUCtotal) was determined as the sum of the AUC0–24 h and of the extrapolated part, i.e. the ratio of the concentration predicted at the time interval of 24 h and the terminal rate constant λz. The λz was estimated using linear regression of the log-transformed concentrations at interval from 45 min to 24 h plotted against time. The half-life was calculated as t1/2 = ln(2)/λz. Other statistical analysis was performed using GraphPad Prism, version 5.0 (GraphPad Software, San Diego, California, USA).
Brain tissues (whole brains) were mechanically crushed under liquid nitrogen. […] Eight-hundred microliter of supernatant was subjected to liquid-liquid extraction as previously described. All assessments were performed in triplicate.
In data set [5] the test system is acetylcholinesterase (AChE). Further details: method as in PMID 10641971. To be noted: long-lasting, pseudo-irreversible inhibitor; ref [10]; cited from earlier work.

Where two headings read alike, the source gives them in different places.

On to `COc1cc2c(cc1OC)C(=O)C(CC1CCN(Cc3ccccc3)CC1)C2` (stereo not drawn) [Donepezil], for which the CSF concentration is 5.2 ng/mL in data set [1] (12 h after application) and 7.5 ng/mL in data set [1] (after 24 h).
As a reminder, the CL/F is clearance divided by bioavailability, as obtained after extravascular dosing. By MRT is commonly meant the average time that molecules of a dose stay in the body. For orientation: Vd/F means the apparent distribution volume after extravascular dosing. In “in vivo [2]”, `CCN(C)C(=O)Oc1cccc([C@H](C)N(C)C)c1` [Rivastigmine] showed a CL/F of 690 ± 30 mL/min/kg and a mean residence time (MRT) of 43.4 min. Also, the Vd/F in data set [3] was determined as 19.8 ± 3.87 L/kg. In “in vivo [4]”, the Kp at 0 min was found to be 0, the Kp at 5 min is 1.74, the Kp at 15 min stood at 1.48 and the Kp at 30 min is 1.7. For the same compound, in “in vivo [4]”, the Kp at 45 min turned out to be 1.15, the Kp at 60 min came to 1.13, the Kp at 120 min is 0.176 and the Kp at 240 min was determined as 0. Also, in “in vivo [4]”, the Kp at 24 h was 0, the concentration at 0 min was determined as 0 ng/mL, the concentration at 5 min was 5.23 ± 0.76 ng/mL and the concentration at 15 min was 4.92 ± 0.62 ng/mL. In addition, in the data set “in vivo [4]”, the concentration at 30 min stood at 4.72 ± 0.51 ng/mL, the concentration at 45 min was determined as 2.73 ± 0.32 ng/mL, the concentration at 60 min was 2.24 ± 0.22 ng/mL and the concentration at 120 min was 0.03 ± 0.02 ng/mL. For the same compound, in the data set “in vivo [4]”, the concentration at 240 min turned out to be 0 ng/mL and the concentration at 24 h was 0 ng/mL. The “duration of AChE inhibition” value in data set [5] is on record as “up to 10 h”.

(Values after publication PMC7758017 (Iranian Journal of Pharmaceutical Research : IJPR, 2020).)
